Measurements as given in patent publication US20210284952A1, “METHODS OF APPLYING ACETATE TOXICITY AND INDUCING ACETATE UPTAKE IN MICROALGAE CULTURES” (HELIAE DEVELOPMENT LLC, priority 2016, published 2021).
Counter-ions that a name gives are not always drawn. Like-named read-outs stand apart in the source and are kept apart here.

Legend:
Chlorella sp. HS26 [1] = system: Chlorella sp. HS26
Protocol: An experiment was conducted with Chlorella sp. HS26 to evaluate the impact of pH induced acetate toxicity on microalgal growth during a batch culturing process. The two treatments of pH 6.5 and pH 7.5 were set up in outdoor raceway ponds utilizing a pH auxostat with a set point at the designated pH values and cultured for seven days. Duplicate cultures of each treatment were performed in the experiment. […] The cultures were inoculated at a density of 1 g/L, cultured at a temperature of 25° C., and received natural sunlight.

Chlorella sp. HS26 [2] = system: Chlorella sp. HS26; remark: listed apart in the source
Protocol: The experiment of Example 11 was repeated with Chlorella sp. HS26 to evaluate the impact of pH induced acetate toxicity on microalgal lipid and protein accumulation. The two treatments of pH 6.5 and pH 7.5 were set up in outdoor raceway ponds utilizing a pH auxostat with a set point at the designated pH values. The microalgae were cultured for 8 days. Duplicate cultures of each treatment were performed in the experiment. […] The cultures were inoculated at a density of 1 g/L, cultured at a temperature of 25° C., and received natural sunlight.

[3] = system: Aurantiochytrium sp. HS399
[4] = system: Aurantiochytrium sp. HS399; conditions: pH 6±0.2 auxostat, dissolved oxygen
Protocol: An experiment was performed to determine the effect on respiration in microalgae Aurantiochytrium sp. HS399 in response to acetate toxicity (i.e., the increase of the internal cell acetate concentration). […] Data presented corresponds to a 4 day old 30 L bubble column bag bioreactor growing in axenic conditions at culture density of 24 g/L, that was incubated at a temperature of 29.5±0.3° C., and aerated at a rate of 10 LPM. The pH probe: E&H, Digital non-glass pH sensor, Tophit CPS471D helped to maintain the pH at 6±0.2 in a pH auxostat mode. The DO was recorder with a Hamilton, EasyFerm Plus Arc 120, P/N: 242091/06 probe. Samples were taken before and after each pulse and analyzed for residual acetate using HPLC. Internal acetate was fluctuations were calculated based on medium residual acetate by integrating the previously presented equation:

Chlorella sp. HS26 [5] = conditions: pH 6±0.2 auxostat, dissolved oxygen
Protocol: An experiment was performed to determine the effect on respiration in microalgae Chlorella sp. HS26 in response to acetate toxicity conditions (i.e., the increase of the internal cell acetate concentration). […] Data presented corresponds to a continuous 200 L bubble column culture growing in axenic conditions at culture density of 12 g/L, that was incubated at a temperature of 25 f 0.3° C., and aerated at a rate of 30 LPM. The pH probe: E&H, Digital non-glass pH sensor, Tophit CPS471D helped to maintain the pH at 6±0.2 in a pH auxostat mode. The DO was recorder with a Hamilton, EasyFerm Plus Arc 120, P/N: 242091/06 probe. Samples were taken before and after each pulse and analyzed for residual acetate using HPLC.

[6] = system: Aurantiochytrium sp. HS399; conditions: pH 5.5 with Acetic Acid, pH 7.0 with HCl
Protocol: (§1) An experiment was performed to determine the effectiveness of applying acetate toxicity to microalgae cultures grown in the presence of a non-acetate organic carbon source, in this case glycerol. Aurantiochytrium sp. HS399 was grown in a 100 L open pond. […] Trace and vitamins stocks were prepared according to Ashford, et al. 2000. Lipids 35, 1377-1386. The ponds were inoculated at 1 v/v using exponentially growing cultures. Aeration was maintained at 0.5 vvm using a porous hose. […] Cytosolic (internal cell) acetate concentration was calculated using the previously described model.

total aerobic bacteria = conditions: for Contamination: pH 5.5 with Acetic Acid, pH 7.0 with HCl
Protocol: as §1

[7] = system: Aurantiochytrium sp. HS399; remark: listed apart in the source
Description: Because the microalgae pH homeostasis will tend to maintain an internal cell pH slightly above neutral (about 7-8) in response to medium acidification, the acetate built up inside the cell may be modeled. The internal acetate concentration of a cell may be calculated from the external culture pH, and the residual acetate concentration in the culture, assuming that the internal pH of the cell and the ionic strength are maintained constant. The pH gradient between the internal cell pH and pH of the culture medium outside the cell may be calculated with the following equation derived from the Hendersen Hassleback equation, from which the internal acetate concentration can be solved: […]
An experiment was conducted to determine the acetate toxicity of Aurantiochytrium sp. HS399. […] The initial culture medium was supplemented with 30 g/L glycerol and 0.5 or 5 g/L acetate.

Chlorella sp. HS26 [8] = conditions: pH-auxostat feed
Description: Samples were taken daily to measure dry weight and residual acetate concentration of the culture medium.

[9] = system: Aurantiochytrium sp. HS399; conditions: nitrogen source
Protocol: An experiment was conducted to determine the effect of different nitrogen sources on the internal cell acetate concentration for cultures of Aurantiochytrium sp. HS399 cultures. […] 7H2O (2.5), KCl (0.5), CaCl2 (0.1), KH2PO4 (0.5) vitamins (1 ml/L) and trace metal (5 ml/L). […] The ponds were inoculated at 1 v/v using exponentially growing cultures. Aeration was maintained at 0.5 vvm using a porous hose. Equimolar nitrogen concentrations were added top each pond reactor. […] Culture dry weights (filtration) and residual acetate (HPLC) in the culture medium were analyzed daily. Cytosolic (internal cell) acetate concentration was calculated using the previously described model.

Compound: CC(=O)O [Acetic Acid, acetic acid]
- average three-day productivity (Chlorella sp. HS26 [1]; pH 6.5 cultures): 1.14 g/L/day
- average three-day productivity (Chlorella sp. HS26 [1]; pH 7.5 cultures): 0.76 g/L/day
- Ash (Chlorella sp. HS26 [2]; pH 6.5, day 0): 26 6 % DW
- Total Carbohydrates (Chlorella sp. HS26 [2]; pH 6.5, day 0): 28.51 % DW
- Total Lipids (Chlorella sp. HS26 [2]; pH 6.5, day 0): 9.82 % DW
- Total Protein (Chlorella sp. HS26 [2]; pH 6.5, day 0): 35.07 % DW
- Ash (Chlorella sp. HS26 [2]; pH 6.5, day 8): 3.26 % DW
- Total Carbohydrates (Chlorella sp. HS26 [2]; pH 6.5, day 8): 32.13 % DW
- Total Lipids (Chlorella sp. HS26 [2]; pH 6.5, day 8): 29.34 % DW
- Total Protein (Chlorella sp. HS26 [2]; pH 6.5, day 8): 35.28 % DW
- Ash (Chlorella sp. HS26 [2]; pH 7.5, day 0): 26 6 % DW
- Total Carbohydrates (Chlorella sp. HS26 [2]; pH 7.5, day 0): 28.51 % DW
- Total Lipids (Chlorella sp. HS26 [2]; pH 7.5, day 0): 9.82 % DW
- Total Protein (Chlorella sp. HS26 [2]; pH 7.5, day 0): 35.07 % DW
- Ash (Chlorella sp. HS26 [2]; pH 7.5, day 8): 3.05 % DW
- Total Carbohydrates (Chlorella sp. HS26 [2]; pH 7.5, day 8): 33.62 % DW
- Total Lipids (Chlorella sp. HS26 [2]; pH 7.5, day 8): 23.66 % DW
- Total Protein (Chlorella sp. HS26 [2]; pH 7.5, day 8): 39.69 % DW
- growth inhibited ([3]; internal acetate concentration 53 g/L): not
- growth inhibited ([3]; internal acetate concentration 153 g/L): inhibited
- Cell Dry Weights ([3]; pH 4.5, day 0): 0.4 g/L
- Cell Dry Weights ([3]; pH 4.5, day 1): 0.5 g/L
- Cell Dry Weights ([3]; pH 4.5, day 2): 0.3 g/L
- Cell Dry Weights ([3]; pH 4.5, day 3): 0.2 g/L
- Cell Dry Weights ([3]; pH 4.5, day 4): 0.3 g/L
- Cell Dry Weights ([3]; pH 4.5, day 5): 0.0 g/L
- Cell Dry Weights ([3]; pH 5.0, day 0): 0.4 g/L
- Cell Dry Weights ([3]; pH 5.0, day 1): 2.3 g/L
- Cell Dry Weights ([3]; pH 5.0, day 2): 5.0 g/L
- Cell Dry Weights ([3]; pH 5.0, day 3): 7.1 g/L
- Cell Dry Weights ([3]; pH 5.0, day 4): 8.9 g/L
- Cell Dry Weights ([3]; pH 5.0, day 5): 10.0 g/L
- Cell Dry Weights ([3]; pH 5.5, day 0): 0.4 g/L
- Cell Dry Weights ([3]; pH 5.5, day 1): 2.7 g/L
- Cell Dry Weights ([3]; pH 5.5, day 2): 5.6 g/L
- Cell Dry Weights ([3]; pH 5.5, day 3): 8.0 g/L
- Cell Dry Weights ([3]; pH 5.5, day 4): 10.2 g/L
- Cell Dry Weights ([3]; pH 5.5, day 5): 11.6 g/L
- Cell Dry Weights ([3]; pH 7.0, day 0): 0.4 g/L
- Cell Dry Weights ([3]; pH 7.0, day 1): 1.5 g/L
- Cell Dry Weights ([3]; pH 7.0, day 2): 2.9 g/L
- Cell Dry Weights ([3]; pH 7.0, day 3): 4.1 g/L
- Cell Dry Weights ([3]; pH 7.0, day 4): 5.4 g/L
- Cell Dry Weights ([3]; pH 7.0, day 5): 6.3 g/L
- respiration rate in response to acetic acid toxicity [4]: increases respiration rate
- respiration rate in response to acetic acid toxicity (Chlorella sp. HS26 [5]): increases its respiration rate
- Cell Dry Weight ([6]; day 0): 0.0 g/L
- Cell Dry Weight ([6]; day 1): 1.1 g/L
- Cell Dry Weight ([6]; day 2): 3.5 g/L
- Cell Dry Weight ([6]; day 3): 6.2 g/L
- Cell Dry Weight ([6]; day 4): 7.7 g/L
- Cell Dry Weight ([6]; day 5): 9.7 g/L
- Contamination (total aerobic bacteria; day 0): 5.5E+04 CFU/mL
- Contamination (total aerobic bacteria; day 1): 4.8E+05 CFU/mL
- Contamination (total aerobic bacteria; day 2): 5.7E+07 CFU/mL
- Contamination (total aerobic bacteria; day 3): 4.0E+10 CFU/mL
- Contamination (total aerobic bacteria; day 4): 4.6E+12 CFU/mL
- Contamination (total aerobic bacteria; day 5): 8.0E+14 CFU/mL
- decrease of aerobic bacteria counts versus other treatment (total aerobic bacteria; throughout the batch, acetate toxicity conditions (pH 5.5)): ≥ 3 log
- growth ([7]; 53 g/L internal acetate concentration): tolerated
- growth ([7]; 153 g/l internal acetate concentration): inhibited
- growth ([7]; 329 g/L internal acetate concentration): did not proliferate
- Cell Dry Weight ([7]; pH 4.5, day 0): 0.3 g/L
- Cell Dry Weight ([7]; pH 4.5, day 1): 1.8 g/L
- Cell Dry Weight ([7]; pH 4.5, day 2): 4.5 g/L
- Cell Dry Weight ([7]; pH 4.5, day 3): 6.4 g/L
- Cell Dry Weight ([7]; pH 4.5, day 4): 7.8 g/L
- Cell Dry Weight ([7]; pH 4.5, day 5): 8.4 g/L
- Cell Dry Weight ([7]; pH 4.5, day 6): 9.3 g/L
- Cell Dry Weight ([7]; pH 5.0, day 0): 0.3 g/L
- Cell Dry Weight ([7]; pH 5.0, day 1): 2.1 g/L
- Cell Dry Weight ([7]; pH 5.0, day 2): 5.6 g/L
- Cell Dry Weight ([7]; pH 5.0, day 3): 8.1 g/L
- Cell Dry Weight ([7]; pH 5.0, day 4): 9.9 g/L
- Cell Dry Weight ([7]; pH 5.0, day 5): 10.6 g/L
- Cell Dry Weight ([7]; pH 5.0, day 6): 11.4 g/L
- Cell Dry Weight ([7]; pH 5.5, day 0): 0.3 g/L
- Cell Dry Weight ([7]; pH 5.5, day 1): 1.9 g/L
- Cell Dry Weight ([7]; pH 5.5, day 2): 5.5 g/L
- Cell Dry Weight ([7]; pH 5.5, day 3): 8.5 g/L
- Cell Dry Weight ([7]; pH 5.5, day 4): 10.8 g/L
- Cell Dry Weight ([7]; pH 5.5, day 5): 11.4 g/L
- Cell Dry Weight ([7]; pH 5.5, day 6): 12.0 g/L
- Cell Dry Weight ([7]; pH 7.0, day 0): 0.3 g/L
- Cell Dry Weight ([7]; pH 7.0, day 1): 2.7 g/L
- Cell Dry Weight ([7]; pH 7.0, day 2): 7.1 g/L
- Cell Dry Weight ([7]; pH 7.0, day 3): 9.8 g/L
- Cell Dry Weight ([7]; pH 7.0, day 4): 12.0 g/L
- Cell Dry Weight ([7]; pH 7.0, day 5): 12.7 g/L
- Cell Dry Weight ([7]; pH 7.0, day 6): 12.7 g/L
- Aerobic bacteria count (Aerobic bacteria; pH set point 5.5, day 0.0): 1.1E+04 CFU/mL
- Aerobic bacteria count (Aerobic bacteria; pH set point 5.5, day 0.9): 2.1E+04 CFU/mL
- Aerobic bacteria count (Aerobic bacteria; pH set point 5.5, day 1.9): 2.2E+04 CFU/mL
- Cell Dry Weight (Chlorella sp. HS26 [8]; day 0): 0.3 g/L
- Cell Dry Weight (Chlorella sp. HS26 [8]; day 1): 0.8 g/L
- Cell Dry Weight (Chlorella sp. HS26 [8]; day 2): 2.7 g/L
- Cell Dry Weight (Chlorella sp. HS26 [8]; day 3): 3.7 g/L
- Cell Dry Weight (Chlorella sp. HS26 [8]; day 4): 4.7 g/L
- Cell Dry Weight (Chlorella sp. HS26 [8]; day 5): 5.3 g/L
- Cell Dry Weight (Chlorella sp. HS26 [8]; day 6): 5.3 g/L

Compound: Cl [HCl, hydrochloric acid]
- Cell Dry Weight ([6]; day 0): 0.1 g/L
- Cell Dry Weight ([6]; day 1): 1.6 g/L
- Cell Dry Weight ([6]; day 2): 4.3 g/L
- Cell Dry Weight ([6]; day 3): 5.5 g/L
- Cell Dry Weight ([6]; day 4): 6.5 g/L
- Cell Dry Weight ([6]; day 5): 8.1 g/L
- Contamination (total aerobic bacteria; day 0): 1.9E+05 CFU/mL
- Contamination (total aerobic bacteria; day 1): 2.9E+10 CFU/mL
- Contamination (total aerobic bacteria; day 2): 1.3E+16 CFU/mL
- Contamination (total aerobic bacteria; day 3): 2.1E+18 CFU/mL
- Contamination (total aerobic bacteria; day 4): 1.4E+17 CFU/mL
- Contamination (total aerobic bacteria; day 5): 3.4E+21 CFU/mL

Compound: N[C@@H](CCC(=O)O)C(=O)[O-].[Na+] [MSG, monosodium glutamate]
- Cell Dry Weight ([9]; day 0): 0.2 g/L
- Cell Dry Weight ([9]; day 1): 3.5 g/L
- Cell Dry Weight ([9]; day 2): 6.8 g/L
- Cell Dry Weight ([9]; day 3): 8.1 g/L
- Cell Dry Weight ([9]; day 4): 9.7 g/L
- Cell Dry Weight ([9]; day 5): 10.2 g/L

Compound: N [NH3, ammonia]
- Cell Dry Weight ([9]; day 0): 0.2 g/L
- Cell Dry Weight ([9]; day 1): 1.9 g/L
- Cell Dry Weight ([9]; day 2): 7.4 g/L
- Cell Dry Weight ([9]; day 3): 7.8 g/L
- Cell Dry Weight ([9]; day 4): 9.9 g/L
- Cell Dry Weight ([9]; day 5): 10.3 g/L
